Data taken from US8530430B2, “TTK peptides and vaccines including the same” (Oncotherapy Science, Inc., priority 2009, dated 2013).

Legend:
[1] = tested on: peptide-pulsed T2 cells; experiment: IFN-gamma ELISA assay of established CTL lines and CTL clone; format: cell-based, human; conditions: for IFN-gamma production of CTL lines: CTL line established with the peptide, target cells pulsed with corresponding peptide vs without peptide pulse
Description: CTLs were expanded in culture using the method similar to the one described by Riddell et al. (Walter E A et al., N Engl J Med 1995 Oct. 19, 333(16): 1038-44; Riddell S R et al., Nat Med 1996 February, 2(2): 216-23). A total of 5×10^4 CTLs were resuspended in 25 ml of AIM-V/5% AS medium with 2 kinds of human B-lymphoblastoid cell lines, inactivated by Mitomycin C, in the presence of 40 ng/ml of anti-CD3 monoclonal antibody (Pharmingen). One day after initiating the cultures, 120 IU/ml of IL-2 were added to the cultures. The cultures were fed with fresh AIM-V/5% AS medium containing 30 IU/ml of IL-2 on days 5, 8 and 11 (Tanaka H et al., Br J Cancer 2001 Jan. 5, 84(1): 94-9; Umano Y et al., Br J Cancer 2001 Apr. 20, 84(8): 1052-7; Uchida N et al., Clin Cancer Res 2004 Dec. 15, 10(24): 8577-86; Suda T et al., Cancer Sci 2006 May, 97(5): 411-9; Watanabe T et al., Cancer Sci 2005 August, 96(8): 498-506).
The dilutions were made to have 0.3, 1, and 3 CTLs/well in 96 round-bottomed micro titer plate (Nalge Nunc International). CTLs were cultured with 1×10^4 cells/well of 2 kinds of human B-lymphoblastoid cell lines, 30 ng/ml of anti-CD3 antibody, and 125 U/ml of IL-2 in a total of 150 micro-l/well of AIM-V Medium containing 5% AS. 50 micro-1/well of IL-2 were added to the medium 10 days later so to reach a final concentration of 125 U/ml IL-2. CTL activity was tested on the 14th day, and CTL clone was expanded using the same method as described above (Uchida N et al., Clin Cancer Res 2004 Dec. 15, 10(24): 8577-86; Suda T et al., Cancer Sci 2006 May, 97(5): 411-9; Watanabe T et al., Cancer Sci 2005 August, 96(8): 498-506).
(§1) Specifically, peptide-pulsed T2 (1×10^4/well) was prepared as stimulator cells. Cultured cells in 48 wells were used as responder cells. IFN-gamma ELISPOT assay and IFN-gamma ELISA assay were performed under manufacture procedure.

[2] = tested on: peptide-pulsed T2 cells; experiment: IFN-gamma ELISPOT assay on CTLs induced with TTK peptides; format: cell-based, human; conditions: wells of CTLs stimulated with the peptide, against peptide-pulsed target cells compared to control wells
Source text: Monocyte-derived dendritic cells (DCs) were used as antigen-presenting cells (APCs) to induce cytotoxic T lymphocyte (CTL) responses against peptides presented on human leukocyte antigen (HLA). DCs were generated in vitro as described elsewhere (Nakahara S et al., Cancer Res 2003 Jul. 15, 63(14): 4112-8). Specifically, peripheral blood mononuclear cells (PBMCs) isolated from a normal volunteer (HLA-A*0201 positive) by Ficoll-Plaque (Pharmacia) solution were separated by adherence to a plastic tissue culture dish (Becton Dickinson) so as to enrich them as the monocyte fraction. The monocyte-enriched population was cultured in the presence of 1,000 U/ml of granulocyte-macrophage colony-stimulating factor (GM-CSF) (R&D System) and 1,000 U/ml of interleukin (IL)-4 (R&D System) in AIM-V Medium (Invitrogen) containing 2% heat-inactivated autologous serum (AS). After 7 days of culture, the cytokine-induced DCs were pulsed with 20 micro-g/ml of each of the synthesized peptides in the presence of 3 micro-g/ml of beta 2-microglobulin for 3 hrs at 37 degrees C. in AIM-V Medium. The generated cells appeared to express DC-associated molecules, such as CD80, CD83, CD86 and HLA class II, on their cell surfaces (data not shown). These peptide-pulsed DCs were then inactivated by X-irradiation (20 Gy) and mixed at a 1:20 ratio with autologous CD8+ T cells, obtained by positive selection with CD8 Positive Isolation Kit (Dynal). These cultures were set up in 48-well plates (Corning); each well contained 1.5×10^4 peptide-pulsed DCs, 3×10^5 CD8+ T cells and 10 ng/ml of IL-7 (R&D System) in 0.5 ml of AIM-V/2% AS medium. Three days later, these cultures were supplemented with IL-2 (CHIRON) to a final concentration of 20 IU/ml. On days 7 and 14, the T cells were further stimulated with the autologous peptide-pulsed DCs. The DCs were prepared each time by the same way described above. CTL was tested against peptide-pulsed T2 cells after the 3rd round of peptide stimulation on day 21 (Tanaka H et al., Br J Cancer 2001 Jan. 5, 84(1): 94-9; Umano Y et al., Br J Cancer 2001 Apr. 20, 84(8): 1052-7; Uchida N et al., Clin Cancer Res 2004 Dec. 15, 10(24): 8577-86; Suda T et al., Cancer Sci 2006 May, 97(5): 411-9; Watanabe T et al., Cancer Sci 2005 August, 96(8): 498-506).
as §1

[3] = tested on: COS7 transfected with both the full length TTK gene and the HLA-A*0201 molecule; conditions: results of WO2008/102557 duplicated as FIG. 4; cited from earlier work
[4] = tested on: TE1 cells; experiment: Specific CTL activity against HLA-A2 negative, TTK positive control tumor cell line TE-1; format: cell-based, human
Source text: (§2) T2 (HLA-A2), human B-lymphoblastoid cell line and COST, African green monkey kidney cell line, were purchased from ATCC. HLA-A2 positive and TTK positive tumor cell line, H1650, was purchased from ATCC. HLA-A2 negative and TTK positive cell lines, PC-3 and TE-1, were purchased from JCRB Cell bank and RIKEN Cell Bank, respectively.
(§3) The established CTL lines and clones raised against each peptide were examined for the ability to recognize target cells that express TTK and HLA-A*0201 molecule. […] COS7 cells transfected with either full length of TTK genes or HLA-A*0201 were prepared as controls. […] And then this peptide-HLA complex was recognized by the CTLs.

[5] = tested on: COS7 cells transfected with both the full length of TTK and HLA-A*0201 gene; experiment: Specific CTL activity against target cells expressing TTK and HLA-A*0201; format: cell-based, African green monkey
Source text: (§4) The cDNA encoding an open reading frame of target genes or HLA-A*0201 was amplified by PCR. The PCR-amplified products were cloned into a vector. The plasmids were transfected into COS7, which is the target genes and HLA-A*0201-negative cell line, using lipofectamine 2000 (Invitrogen) according to the manufacturer's recommended procedures. After 2 days from transfection, the transfected cells were harvested with versene (Invitrogen) and used as the target cells (5×10^4 cells/well) for CTL activity assay.
as §3

[6] = tested on: COS7 cells transfected with either full length of TTK genes or HLA-A*0201; experiment: Specific CTL activity against control COS7 transfectants; format: cell-based, African green monkey; conditions: CTL line and clone; COS7 expressing either TTK or HLA-A*0201 only
Source text: as §4, §3

[7] = tested on: PC3 cells; experiment: Specific CTL activity against HLA-A2 negative, TTK positive control tumor cell line PC-3; format: cell-based, human
Source text: as §2, §3

[8] = tested on: H1650 cells; experiment: Specific CTL activity against HLA-A2 positive, TTK positive tumor cell line; format: cell-based, human; conditions: FIG. 3c
Source text: as §2, §3

## TTK-A02-9-142: 9-mer HLA-A*0201 binding candidate peptide derived from TTK, SEQ ID NO: 15 (FAFVHISFA)
[1]
  IFN-gamma production of CTL lines: potent IFN-gamma production
[2]
  IFN-gamma production of peptide-induced CTLs (peptide specific CTL activity): potent IFN-gamm production

## TTK-A02-9-146: 9-mer HLA-A*0201 binding candidate peptide derived from TTK, SEQ ID NO: 19 (HISFAQFEL)
[2]
  IFN-gamma production of peptide-induced CTLs (peptide specific CTL activity): potent IFN-gamm production

## TTK-A02-9-462: 9-mer HLA-A*0201 binding candidate peptide derived from TTK, SEQ ID NO: 1 (YMSCFRTPV)
[3]
  Specific CTL activity of CTL clones against COS7 transfected with both TTK and HLA-A*0201: specific CTL activity
[1]
  IFN-gamma production of CTL lines: potent IFN-gamma production
[2]
  IFN-gamma production of peptide-induced CTLs (peptide specific CTL activity): potent IFN-gamm production

## TTK-A02-9-547: 9-mer peptide derived from TTK, SEQ ID NO: 5, disclosed in Applicants' WO2008/102557 (KQIYAIKYV)
[3]
  Specific CTL activity of CTL clones against COS7 transfected with both TTK and HLA-A*0201: specific CTL activity

## TTK-A02-9-564: 9-mer HLA-A*0201 binding candidate peptide derived from TTK, SEQ ID NO: 20 (TLDSYRNEI)
[2]
  IFN-gamma production of peptide-induced CTLs (peptide specific CTL activity): potent IFN-gamm production

## TTK-A02-9-593: nonapeptide derived from TTK, HLA-A2 restricted epitope peptide, SEQ ID NO: 3 (ITDQYIYMV)
[4]
  Specific CTL activity of CTL clone against control tumor cells: no significant specific CTL activity was detected
[5]; CTL clone stimulated with the peptide as effector cells (FIG. 3b)
  CTL activity of CTL clone against COS7 cells expressing both TTK and HLA-A*0201: potent CTL activity
[5]; CTL line stimulated with the peptide as effector cells (FIG. 3a)
  CTL activity of CTL line against COS7 cells expressing both TTK and HLA-A*0201: potent CTL activity
[5]; compared to TTK-A2-9-462, TTK-A02-9-547, TTK-A2-9-719 and TTK-A2-10-462 (FIG. 3 vs FIG. 4)
  Increase in the IFN-gamma production compared to the peptides of WO2008/102557: one or two orders of magnitude
[6]
  Specific CTL activity against the controls: no significant specific CTL activity was detected
[1]; CTL clone established by limiting dilution from the CTL line, target cells pulsed with peptide
  IFN-gamma production of CTL clone: Potent IFN-gamma productions
[1]
  IFN-gamma production of CTL lines: potent IFN-gamma production
[2]
  IFN-gamma production of peptide-induced CTLs (peptide specific CTL activity): potent IFN-gamm production
[7]
  Specific CTL activity of CTL clone against control tumor cells: no significant specific CTL activity was detected
[8]
  Specific CTL activity of CTL clone against tumor cell line endogenously expressing both TTK and HLA-A*0201: specific CTL activity

## TTK-A02-9-630: 9-mer HLA-A*0201 binding candidate peptide derived from TTK, SEQ ID NO: 2 (NMLEAVHTI)
[1]
  IFN-gamma production of CTL lines: potent IFN-gamma production
[2]
  IFN-gamma production of peptide-induced CTLs (peptide specific CTL activity): potent IFN-gamm production

## TTK-A02-9-719: 9-mer HLA-A*0201 binding candidate peptide derived from TTK, SEQ ID NO: 6 (SLGCILYYM)
[3]
  Specific CTL activity of CTL clones against COS7 transfected with both TTK and HLA-A*0201: specific CTL activity
[1]
  IFN-gamma production of CTL lines: potent IFN-gamma production
[2]
  IFN-gamma production of peptide-induced CTLs (peptide specific CTL activity): potent IFN-gamm production

## TTK-A02-10-462: 10-mer HLA-A*0201 binding candidate peptide derived from TTK, SEQ ID NO: 22 (YMSCFRTPVV)
[3]
  Specific CTL activity of CTL clones against COS7 transfected with both TTK and HLA-A*0201: specific CTL activity
[1]
  IFN-gamma production of CTL lines: potent IFN-gamma production
[2]
  IFN-gamma production of peptide-induced CTLs (peptide specific CTL activity): potent IFN-gamm production

## TTK-A02-10-542: 10-mer HLA-A*0201 binding candidate peptide derived from TTK, SEQ ID NO: 34 (VLNEKKQIYA)
[2]
  IFN-gamma production of peptide-induced CTLs (peptide specific CTL activity): potent IFN-gamm production

## TTK-A02-10-661: 10-mer HLA-A*0201 binding candidate peptide derived from TTK, SEQ ID NO: 35 (KLIDFGIANQ)
[2]
  IFN-gamma production of peptide-induced CTLs (peptide specific CTL activity): potent IFN-gamm production
